± gives the expanded uncertainty stated by the source.
Legend:
[1] = Crystal; Adiabatic calorimetry
[2] = Molar enthalpy of transition or fusion; details: Crystal; Adiabatic calorimetry
[3] = molar heat capacity at constant pressure; details: 101.33 kPa, Small (less than 1 g) adiabatic calorimetry

c1ccc(Oc2ccccc2)cc1 [diphenyl ether]
Details | Molar enthalpy of transition or fusion [kcal/mol] | Triple point temperature [K]
[1] | – | 299.96 ± 0.05
[2] | 4.092 ± 0.0287 | –

[3]
Details | molar heat capacity at constant pressure [J/K/mol]
282.08 K, Crystal | 202.2 ± 1.4
283.34 K, Crystal | 202.92 ± 1.4
285.84 K, Crystal | 203.66 ± 1.4
287.09 K, Crystal | 205.43 ± 1.4
288.33 K, Crystal | 206.1 ± 1.4
289.59 K, Crystal | 207.25 ± 1.4
290.84 K, Crystal | 208.01 ± 1.4
292.1 K, Crystal | 209.17 ± 1.4
321.46 K, Liquid | 276.46 ± 1.9
323.17 K, Liquid | 278.21 ± 1.9
324.89 K, Liquid | 278.93 ± 1.9
326.63 K, Liquid | 279.41 ± 1.9
328.37 K, Liquid | 279.66 ± 1.9
330.1 K, Liquid | 280.76 ± 1.9
331.85 K, Liquid | 281.87 ± 1.9
333.61 K, Liquid | 282.69 ± 1.9
335.38 K, Liquid | 283.24 ± 1.9

Reference: the NIST ThermoML archive (doi:10.1016/j.jct.2018.04.009)
